From patent US11685726B2, “Pharmaceutical compositions of 6-(2-(2H-tetrazol-5-yl)ethyl)-6-fluorodecahydroisoquinoline-3-carboxylic acid and ester derivatives thereof” (Sea Pharmaceuticals LLC, priority 2020, dated 2023)

Columns and labels:
[1] = tested on: 6 Hz psychomotor seizure model in mice; assay: 6 Hz psychomotor seizure model in mice; format: in vivo, mouse; conditions: DMC
Excerpt: Adult male Carworth Farms (CF-1) mice (25-35 g) or young male Sprague-Dawley (SD) rats (100-150 g) were obtained from Charles River Laboratories Inc (Wilmington Mass. USA). CF1 mice were typically used for the 6 Hz psychomotor seizure model (6 Hz model described in the section below) but could also be used for the Maximal electroshock seizure (MES) model if performed in mice (Maximal electroshock seizure model described in the section below). SD rats were typically used for MES model but could also be used for 6 Hz psychomotor model if performed in rats. Animals were allowed free access to food and water, except during testing periods. After delivery from supplier lab to the in vivo pharmacology testing lab, animals were allowed sufficient time to acclimate to housing conditions prior to testing. Animals were housed in plastic cages in rooms with controlled humidity, ventilation, and lighting (12 hours lights on and 12 hours darkness). The animals were housed and fed in a manner consistent with the recommendations in the “Guide for Care and Use of Laboratory Animals” (National Research Council), and in accordance with guidelines set by an Institutional Animal Care and Use Committee (IACUC). Animal experiments were conducted in a manner consistent with Animal Research: Reporting of In Vivo Experiments (ARRIVE) guidelines (UK) and were approved by an IACUC. Test compounds or respective vehicle (placebo) were administered using an optimal fluid volume-to-body fluid ratio. Solutions or suspensions of test compounds, reference compounds or vehicles were administered to mice or rats in a volume of 0.01 mL/g body weight (mice) or 0.004 mL/g body weight (rats) by subcutaneous (s.c.) injection, intraperitoneal (i.p.) injection or by oral gavage (p.o.) unless otherwise indicated. Reference drug Levetiracetam or vehicle was administered by intraperitoneal (i.p.) injection.
Mice are given a topical anesthetic on the cornea of each eye prior to placement of corneal electrodes. 6 Hz psychomotor seizures were induced in mice (usually 8 animals per group) using electrical stimulation via corneal electrodes (6 Hz, 0.2 millisecond rectangular pulse, 3 second duration at 22 mA using a Grass 48 stimulator instrument as described in Barton M E et al 2001. Epilepsy Res 47:217-227). Prior to placement of corneal electrodes for electrical stimulation 0.5% tetracaine in saline (Sigma) drops were applied to each eye. Seizures and behaviors that arise from the electrical stimulus in the 6 Hz model include a minor clonic seizure phase followed by stereotyped automatistic behaviors including stun, forelimb clonus, twitching of the vibrissae and Straub-tail. […] Animals not presenting any of these behaviors were considered “protected” from seizures. This serves as a screen for in vivo pharmacological activity of test articles or reference anti-epilepsy drugs and defines anti-seizure activity as shown in several publications [Barton M E et al. 2001. Epilepsy Res. 47:217-227; Barton M E et al. 2003 Epilepsy Res. 56:17-26; Brown W C et al. 1953. J Pharmacol Exp Ther 107:273-283. Metcalf C S et al. 2017a. Epilepsia 58:484-493.; Metcalf C S et al. 2017c. Epilepsia 58:239-246.
Unless otherwise indicated pretreatment times of mice or rats were typically 0.5 hours for respective vehicle, Compounds 1, 3, 4, 6 or other compounds administered by subcutaneous or intraperitoneal route (unless other times indicated). A pretreatment time of 1 hour was used for Compounds 3, 4, 6 or other compounds administered by oral route unless other times indicated. Test compounds or respective vehicles were tested in some cases at other pretreatment times as indicated. A median effective dose (ED50) and 95% confidence interval (CI) were calculated using a Prism (Graphpad software). […]

AMPA receptor = assay: Whole cell patch-clamp recording of s-AMPA induced currents in pyramidal neurons of rat brain prefrontal cortex slices; format: cell-based; conditions: rat brain slice PFC pyramidal neurons; n=4 to 5 experiments per concentration; read-out: IC50 of inhibition of peak amplitude responses to 20 μM s-AMPA
Procedure: (§1) Additionally biological activity of compounds as antagonists of AMPA receptors or NMDA receptors (also called ionotropic glutamate-gated ion channels) were conducted using ex vivo functional electrophysiological assays of pyramidal neurons in slices of rat brain prefrontal cortex. Effects of test compounds cf. reference compounds were studied by whole cell patch-clamp electrophysiology recordings of s-AMPA-induced currents or NMDA-induced currents, respectively, using rat brain slice prefrontal cortex (layer V) pyramidal neurons.
Male Sprague Dawley rats were supplied by Charles River Laboratories (Wilmington, Mass. USA) and were housed 4 per cage within a temperature (20.5-23.5° C.) and humidity (30-80%) controlled environment on a 12 hour light/dark cycle with access to food (Teklad Global Soy Protein, Cat. No. T.2920X10, Envigo, Indianapolis, Ind., USA) and water ad libitum. At 4-6 weeks of age rats were terminally anaesthetized using isofluorane [(1-chloro-2,2,2-trifluoroethyl difluoromethyl ether) supplied by Baxter Healthcare Corp, Deerfield, Ill., USA], and decapitated. The brain was removed and 300 μm thick coronal prefrontal cortex (PFC) or sagittal hippocampal slices were sectioned using a Vibratome microtome. After brain removal, and throughout slicing, the tissue was submerged in ice cold […] cerebrospinal fluid (aCSF). Once slices were cut, they were transferred to a beaker containing aCSF and left at room temperature for a minimum of 1 hour before commencing electrophysiological recordings. After this period, individual slices were transferred to a recording chamber continuously perfused with aCSF at a rate of 4-6 mL/min before commencing experiment protocols. aCSF composition (in mM): NaCl, 127; KCl, 1.9; KH2PO4, 1.2; CaCl2), 2.4; MgCl2, 1.3; NaHCO3, 26; D-glucose, 10; in water equilibrated with 95% Oxygen gas-5% CO2 gas (reagent suppliers listed below). Experiments investigating NMDA currents had aCSF supplemented with 10 μM glycine (reagents suppliers listed below). All experiments were conducted following protocols with the approval of an Institutional Animal Care and Use Committee (IACUC).
Whole cell patch-clamp recordings were performed from Layer V prefrontal cortex pyramidal neurons at room temperature using the ‘visualized’ version of the patch-clamp technique. […]
(§2) All test compound experiments were carried out in the voltage-clamp recording configuration of the whole cell patch-clamp technique and all recordings performed at a holding potential of −60 mV. Recordings were monitored on a Dell personal computer (PC) running Axon pClamp software (Molecular Devices, Sunnyvale, Calif., USA) and digitized at 10 kHz. […]

NMDA receptor = assay: Whole cell patch-clamp recording of NMDA induced currents in pyramidal neurons of rat brain prefrontal cortex slices; format: cell-based; conditions: 30 μM; rat brain slice PFC pyramidal neurons; n=4
Procedure: as §1
Male Sprague Dawley rats were supplied by Charles River Laboratories (Wilmington, Mass. USA) and were housed 4 per cage within a temperature (20.5-23.5° C.) and humidity (30-80%) controlled environment on a 12 hour light/dark cycle with access to food (Teklad Global Soy Protein, Cat. No. T.2920X10, Envigo, Indianapolis, Ind., USA) and water ad libitum. […]
as §2

Compound	6 Hz Test Results (# mice protected from seizure/# mice tested) ([1]; 13 mg/kg p.o., 1 hour)	6 Hz Test Results (# mice protected from seizure/# mice tested) ([1]; 13 mg/kg s.c., 0.5 hours)	IC50 (AMPA receptor)	inhibition of peak amplitude responses to 50 μM NMDA induced currents (NMDA receptor)
CCOC(=O)[C@@H]1C[C@H]2C[C@@](F)(CCc3nnn[nH]3)CC[C@H]2CN1 [Compound 3, ethyl (3S,4aS,6S,8aR)-6-fluoro-6-[2-(1H-1,2,3,4-tetrazol-5-yl)ethyl]-decahydroisoquinoline-3-carboxylate]	5/8	8/8		
CCC(CC)COC(=O)[C@@H]1C[C@H]2C[C@@](F)(CCc3nnn[nH]3)CC[C@H]2CN1 [Compound 4, 2-ethylbutyl (3S,4aS,6S,8aR)-6-fluoro-6-[2-(1H-1,2,3,4-tetrazol-5-yl)ethyl]-decahydroisoquinoline-3-carboxylate]	6/7	8/8		
O=C(OC1CCCCC1)[C@@H]1C[C@H]2C[C@@](F)(CCc3nn[nH]n3)CC[C@H]2CN1 [Compound 6, cyclohexyl (3S,4aS,6S,8aR)-6-fluoro-6-[2-(1H-1,2,3,4-tetrazol-5-yl)ethyl]-decahydroisoquinoline-3-carboxylate]	8/8			
O=C(O)[C@@H]1C[C@H]2C[C@@H](CCc3nn[nH]n3)CC[C@H]2CN1 [Tezampanel, reference compound]			481 nM	40%+/−2%
